From PubChem BioAssay (NCI)
“And” between values parts separate entries of the source, which are not always exact repeats. Equal entries are not always repeated.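 Test compounds were applied to cells in 96-well plates for 48 hours at 5 doses. The concentration for 50% growth inhibition is given as GI50. TGI: total growth inhibition.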

How the values were obtained:
Assay in all cases: inhibition of tumour cell growth, NCI panel, 48 h
MOLT-4 leukemia = system: MOLT-4 leukemia
NCI/ADR-RES ovarian = system: NCI/ADR-RES ovarian
UACC-62 melanoma = system: UACC-62 melanoma
OVCAR-4 ovarian = system: OVCAR-4 ovarian
SW-620 colon = system: SW-620 colon
NCI-H23 lung = system: NCI-H23 lung
OVCAR-8 ovarian = system: OVCAR-8 ovarian
HOP-62 NSCLC = system: HOP-62 NSCLC
MALME-3M melanoma = system: MALME-3M melanoma
RPMI-8226 leukemia = system: RPMI-8226 leukemia

SMILES	GI50 (MOLT-4 leukemia)	TGI (MOLT-4 leukemia)	GI50 (NCI/ADR-RES ovarian)	TGI (NCI/ADR-RES ovarian)	GI50 (UACC-62 melanoma)	TGI (UACC-62 melanoma)	GI50 (OVCAR-4 ovarian)	TGI (OVCAR-4 ovarian)	GI50 (SW-620 colon)	TGI (SW-620 colon)	GI50 (NCI-H23 lung)	TGI (NCI-H23 lung)	GI50 (OVCAR-8 ovarian)	TGI (OVCAR-8 ovarian)	GI50 (HOP-62 NSCLC)	TGI (HOP-62 NSCLC)	GI50 (MALME-3M melanoma)	TGI (MALME-3M melanoma)	GI50 (RPMI-8226 leukemia)	TGI (RPMI-8226 leukemia)
COc1cc(-c2nn(-c3cccc(NC(=O)c4ccc(N5CCOCC5)c(C(F)(F)F)c4)c3)cc2-c2ccncc2)ccc1Cl	0.669 µM	> 100 µM	0.203 µM	> 100 µM	0.207 µM	7.07 µM	1.51 µM	> 100 µM	0.168 µM	> 56.9 µM	0.826 µM	34.2 µM	0.468 µM	> 100 µM	0.524 µM	> 58.6 µM	0.0769 µM	1.54 µM	0.269 µM	> 100 µM
N#CC1=C(N)NC(=S)NC12Nc1ccccc1N2	22.2 µM	> 100 µM	46.8 µM	> 100 µM	12.5 µM	57.5 µM	> 100 µM	> 100 µM	59.5 µM	> 100 µM	36.7 µM	> 100 µM	38.6 µM	> 100 µM	55.5 µM	> 100 µM	13.5 µM	69.2 µM	21.7 µM	> 100 µM
CCCCCCCCCCCCCCCCOP(=O)(O)OP(=O)(O)OCC1OC(n2ccc(N)nc2=O)C(O)C1O (stereo not drawn)	–	> 100 µM	> 100 µM and 13.7 µM	> 100 µM	> 100 µM and 21.3 µM	> 100 µM	–	> 100 µM	–	> 100 µM	> 100 µM and 38 µM	> 100 µM	–	> 100 µM	–	> 100 µM	> 100 µM and 46.7 µM	> 100 µM	–	> 100 µM
COC(=O)/C=C/c1cn(C(C)=O)c2ccc(Br)cc12	27.4 µM	> 100 µM	29.4 µM	> 100 µM	30.7 µM	> 100 µM	31.4 µM	> 100 µM	35.6 µM	> 100 µM	27.9 µM	> 100 µM	38.5 µM	> 100 µM	25 µM	> 73.5 µM	24.9 µM	> 88.8 µM	19 µM	> 100 µM
COc1ccc(-c2c(-c3cc(OC)c(OC)c(OC)c3)noc2N)cc1	0.0312 µM	10.4 µM	< 0.01 µM	0.0226 µM	< 0.01 µM	> 65.2 µM	0.0249 µM	57.5 µM	< 0.01 µM	> 100 µM	0.0198 µM	30 µM	0.0173 µM	15.8 µM	0.0239 µM	38.9 µM	13.4 µM	56.8 µM	0.0474 µM	5.96 µM
CC1=C([Te]c2ccc(O)cc2)C(=O)c2ccccc2C1=O	0.907 µM	4.3 µM	2.42 µM	8.3 µM	1.6 µM	4.01 µM	1.95 µM	4.38 µM	1.47 µM	3.15 µM	1.84 µM	5.84 µM	2.4 µM	8.34 µM	0.9 µM	5.15 µM	2.79 µM	7.12 µM	1.16 µM	4.51 µM
CCc1cc2c(cc1N1CCC(N3CCOCC3)CC1)C(C)(C)c1[nH]c3cc(C#N)ccc3c1C2=O	1.57 µM and 0.973 µM and 1.38 µM	> 100 µM and 14.7 µM and > 10 µM	1.01 µM and 1.39 µM and 1.59 µM	3.81 µM and 6.34 µM and 6.47 µM	3.17 µM and 3 µM and 2.64 µM	18.1 µM and 13.7 µM and > 10 µM	0.648 µM and 1.35 µM and 1.63 µM	2.26 µM and 2.86 µM and 3.59 µM	0.924 µM and 1.26 µM and 1.08 µM	> 21.8 µM and 22 µM and > 10 µM	2.8 µM and 3.45 µM and 5.94 µM	38.6 µM and 20 µM and > 10 µM	0.648 µM and 0.935 µM and 1.3 µM	2.48 µM and 3.11 µM and 3.57 µM	0.849 µM and 1.4 µM and 1.43 µM	2.61 µM and 3.03 µM and 3.42 µM	1.41 µM and 1.4 µM and 2.3 µM	5.62 µM and 5.27 µM and > 10 µM	0.549 µM and 0.415 µM and 0.497 µM	8.9 µM and > 10 µM
CCc1ccc2c(c1)N(CCO)C1=C(C(=O)OC1)C2c1cccc(Cl)c1 (stereo not drawn)	1.78 µM	48.5 µM	0.337 µM	5.05 µM	0.537 µM	18.5 µM	0.834 µM	28.8 µM	0.416 µM	21.7 µM	0.923 µM	20.9 µM	1.32 µM	26.8 µM	0.774 µM	15.8 µM	2.82 µM	27.4 µM	3.38 µM	52.6 µM
COc1cc(OC)c(NC(=O)c2cc3ccccc3cc2O)cc1Cl	3.98 µM	30.3 µM	2.63 µM	9.33 µM	2.87 µM	14.1 µM	3 µM	> 100 µM	3.63 µM	18.8 µM	2.38 µM	7.61 µM	2.88 µM	8.45 µM	1.98 µM	6.84 µM	1.89 µM	6.04 µM	2.82 µM	10.9 µM
CCN(CC)CCCC(C)N=c1cc(Nc2cc(=NC(C)CCCN(CC)CC)c3cc(OC)ccc3o2)oc2ccc(OC)cc12 (stereo not drawn)	0.725 µM	2.93 µM	2.09 µM	15.3 µM	1.04 µM	2.39 µM	0.723 µM	1.71 µM	0.672 µM	3.04 µM	3.18 µM	12.7 µM	0.441 µM	3.78 µM	0.734 µM	2.16 µM	0.937 µM	1.74 µM	1.24 µM	3.41 µM
C[C@H]1[C@H]2[C@H]3CC[C@@H]4[C@@]5(C)C/C(=C/c6cccnc6)C(=O)C(C)(C)[C@@H]5CC[C@@]4(C)[C@]3(C)CC[C@]23CO[C@]1(C)[C@@H](C(=O)/C=C\c1cccnc1)C3	0.524 µM	–	1.54 µM	> 50 µM	0.67 µM	1.67 µM	1.5 µM	> 50 µM	1.02 µM	2.51 µM	1.03 µM	2.48 µM	1.59 µM	> 50 µM	1.47 µM	> 15 µM	0.849 µM	1.91 µM	0.255 µM	2.26 µM
CC1(C)CCC(C)(C)c2c1ccc(O)c2Cc1c(O)ccc2c1C(C)(C)CCC2(C)C	–	4.71 µM	–	4.43 µM	–	4.33 µM	–	3.53 µM	–	5.05 µM	–	4.11 µM	–	4.53 µM	–	4.1 µM	–	6.6 µM	–	4.47 µM
C/C(=C\COc1c2c(cc3c1CCO3)OC1(C=C2)OC(CC/C(C)=C/COc2c3ccoc3cc3oc(=O)ccc23)C(C)(C)O1)CCC(O)C(C)(C)O (stereo not drawn)	4.76 µM	53.1 µM	23.8 µM	> 100 µM	4.87 µM	> 100 µM	6.23 µM	> 100 µM	62.3 µM	> 100 µM	33.7 µM	> 100 µM	8.56 µM	> 100 µM	> 100 µM	> 100 µM	68.7 µM	> 100 µM	2.95 µM	23.2 µM
COc1ccc(OC)c(-c2cc(=O)c3c(OC)c(OC)c(OC)c(OC)c3o2)c1	–	63.2 µM	–	82.8 µM	–	64.3 µM	–	88.7 µM	–	> 100 µM	–	> 100 µM	–	> 100 µM	–	79.5 µM	–	> 100 µM	–	76 µM
CC/C(=C(/c1ccc(O)cc1)c1ccc(OCCN2CCCCC2)cc1)c1ccc(OC)cc1	1.6 µM	5.71 µM	8.15 µM	22.4 µM	2.01 µM	4.03 µM	1.88 µM	5.99 µM	1.77 µM	3.89 µM	10.1 µM	23.4 µM	2.45 µM	6.02 µM	1.83 µM	3.91 µM	1.42 µM	2.98 µM	1.24 µM	3.61 µM
COc1cc(-c2ncn(/C=C\C(=O)OC(C)C)n2)cc(C(F)(F)F)c1	0.0302 µM and 0.0282 µM	–	0.0658 µM and 0.0944 µM	11.5 µM and 12.7 µM	0.112 µM and 0.114 µM	2 µM and 3.42 µM	0.0684 µM and 0.0407 µM	4.18 µM and 9.49 µM	0.0368 µM and 0.0441 µM	6.58 µM and 5.38 µM	0.0663 µM and 0.103 µM	14.1 µM and 12.1 µM	0.045 µM and 0.031 µM	11.4 µM and 1.41 µM	0.295 µM and 0.262 µM	3.46 µM and 3.94 µM	0.149 µM and 0.147 µM	12.9 µM and 15.3 µM	0.036 µM and 0.0286 µM	> 36.1 µM and 4.66 µM
O=C(Nc1nc2ccc(F)cc2s1)c1cccnc1Nc1ccc(Cl)cc1	2.47 µM	> 27 µM	2.36 µM	> 28.1 µM	2.47 µM	> 100 µM	2.99 µM	> 100 µM	3.04 µM	> 100 µM	1.67 µM	8.38 µM	6.26 µM	> 100 µM	2.55 µM	9.08 µM	2.22 µM	> 27 µM	1.24 µM	7.47 µM
CN(C)CCOC(c1ccccc1)c1ccccc1	–	> 100 µM	33.1 µM	48.9 µM and > 100 µM	32.7 µM	48.4 µM	–	> 100 µM	35.1 µM	51.8 µM and > 100 µM	38 µM	53.4 µM and > 100 µM	14.8 µM	22.7 µM and > 100 µM	36 µM	50.9 µM and > 100 µM	25.2 µM	46 µM and > 100 µM	–	> 100 µM
NC1=NCCN1CC(=O)O	> 10000 µM	> 10000 µM	> 10000 µM	> 10000 µM	> 10000 µM	> 10000 µM	> 10000 µM	> 10000 µM	> 10000 µM	> 10000 µM	> 10000 µM	> 10000 µM	> 10000 µM	> 10000 µM	> 10000 µM	> 10000 µM	–	> 1000 µM	> 10000 µM	> 10000 µM
